The record followed here is US10793580B2, “Substituted pyrazoloazepin-8-ones and their use as phosphodiesterase inhibitors” (LEO Pharma A/S, priority 2016, dated 2020).

Chain of human PDE4D catalytic domain (Q08499 380-740): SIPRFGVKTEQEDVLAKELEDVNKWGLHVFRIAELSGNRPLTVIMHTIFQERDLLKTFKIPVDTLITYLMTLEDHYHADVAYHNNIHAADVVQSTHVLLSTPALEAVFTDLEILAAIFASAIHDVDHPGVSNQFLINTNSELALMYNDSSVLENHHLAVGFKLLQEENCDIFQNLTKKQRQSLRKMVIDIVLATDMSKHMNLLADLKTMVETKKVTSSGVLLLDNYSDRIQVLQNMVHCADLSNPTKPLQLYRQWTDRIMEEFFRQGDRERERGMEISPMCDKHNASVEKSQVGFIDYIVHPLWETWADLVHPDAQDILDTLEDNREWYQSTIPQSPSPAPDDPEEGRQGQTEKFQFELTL

The target of the first test is human PDE4D catalytic domain (Homo sapiens (Human), UniProt Q08499). Nature of the test: PDE4 Assay (TR-FRET, FAM-cAMP cleavage). The following applies: Table 16, Examples 277-296; read-out: PDE4 IC50 range. It counts as biochemical. In short, it runs like this:
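PDE4D catalytic domain (S380-L740) incubated briefly with unlabelled cAMP plus FAM-cAMP and titrated compound. Reaction stopped with binding buffer holding metal-ion nanoparticles that bind AMP phospho groups and Tb donor, and AMP formation read by TR-FRET. IC50 versus controls, reported as ranges (nM).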
On the technique in general: In TR-FRET formats the signal depends on donor and acceptor labels being close together.
As for `CCn1nc(C[C@@H](C)COC(=O)c2cc(C)nc(C)c2)c2c1C(=O)NCC1(CCOCC1)C2` [Example 293, [(2R)-3-(1-ethyl-8-oxo-spiro[6,7-dihydro-4H-pyrazolo[3,4-c]azepine-5,4′-tetrahydropyran]-3-yl)-2-methyl-propyl] 2,6-dimethylpyridine-4-carboxylate], the IC50 (as a rule, the midpoint of a concentration-inhibition curve) is less than 100 nM. The same measure, in the same setting: to `CCn1nc(C[C@@H](C)COC(=O)C2CCN(C(=O)N(C)C)CC2)c2c1C(=O)NCC1(CCOCC1)C2` [Example 296, [(2R)-3-(1-ethyl-8-oxo-spiro[6,7-dihydro-4H-pyrazolo[3,4-c]azepine-5,4′-tetrahydropyran]-3-yl)-2-methyl-propyl] 1-(dimethylcarbamoyl)piperidine-4-carboxylate] belongs less than 100 nM.

The same test, now with this note: human PDE4D catalytic domain (UniProt Q08499 [S380-L740]); 50% inhibition of substrate cleavage; read-out: PDE4 IC50 range.
For `CCn1nc(CCCOC(=O)c2c(F)cccc2OC)c2c1C(=O)NCC1(CCOCC1)C2` [Example 41, 3-(1-ethyl-8-oxo-spiro[6,7-dihydro-4H-pyrazolo[3,4-c]azepine-5,4′-tetrahydropyran]-3-yl)propyl 2-fluoro-6-methoxy-benzoate], the IC50 is less than 100 nM. As for `CCn1nc(CCCOC(=O)c2ccc(C(F)(F)F)cc2C(F)(F)F)c2c1C(=O)NCC1(CCOCC1)C2` [Example 97, 3-(1-ethyl-8-oxo-spiro[6,7-dihydro-4H-pyrazolo[3,4-c]azepine-5,4′-tetrahydro-pyran]-3-yl)propyl 2,4-bis(trifluoromethyl)benzoate], the half-maximal inhibitory concentration (IC50) is less than 100 nM. On the same count and under the same terms, to `CCn1nc(CC(C)(C)COC(=O)c2cccc(C(=O)N3CCCC3)c2)c2c1C(=O)NCC1(CCOCC1)C2` [Example 230, [3-(1-ethyl-8-oxo-spiro[6,7-dihydro-4H-pyrazolo[3,4-c]azepine-5,4′-tetrahydro-pyran]-3-yl)-2,2-dimethyl-propyl] 3-(pyrrolidine-1-carbonyl)benzoate] belongs less than 100 nM; to `CCn1nc(CCCOC(=O)c2ccc(OC)cc2F)c2c1C(=O)NCC1(CCOCC1)C2` [Example 38, 3-(1-ethyl-8-oxo-spiro[6,7-dihydro-4H-pyrazolo[3,4-c]azepine-5,4′-tetrahydropyran]-3-yl)propyl 2-fluoro-4-methoxy-benzoate], less than 100 nM; to `CCn1nc(CCCOC(=O)c2ccc(OC)cc2)c2c1C(=O)NCC1(CCOCC1)C2` [Example 16, 3-(1-ethyl-8-oxo-spiro[6,7-dihydro-4H-pyrazolo[3,4-c]azepine-5,4′-tetrahydropyran]-3-yl)propyl 4-methoxybenzoate], less than 100 nM. As for `CCn1nc(C[C@@H](C)COC(=O)c2cccc(S(=O)(=O)N3CCOCC3)c2)c2c1C(=O)NCC1(CCOCC1)C2` [Example 164, [(2R)-3-(1-ethyl-8-oxo-spiro[6,7-dihydro-4H-pyrazolo[3,4-c]azepine-5,4′-tetrahydropyran]-3-yl)-2-methyl-propyl] 3-morpholinosulfonylbenzoate], the concentration for half-maximal inhibition (IC50) is less than 100 nM. On the same count and under the same terms, in the case of `CCn1nc(CCOC(=O)C2CCCC2)c2c1C(=O)NCC1(CCOCC1)C2` [Example 134, 2-(1-ethyl-8-oxo-spiro-[6,7-dihydro-4H-pyrazolo-[3,4-c]azepine-5,4′-tetra-hydropyran]-3-yl)ethyl cyclopentanecarboxylate] it was less than 100 nM; in that of `CCn1nc(CC(C)(C)COC(=O)c2cccc(S(=O)(=O)CC)c2)c2c1C(=O)NCC1(CCOCC1)C2` [Example 204, [3-(1-ethyl-8-oxo-spiro[6,7-dihydro-4H-pyrazolo[3,4-c]azepine-5,4′-tetrahydropyran]-3-yl)-2,2-dimethyl-propyl] 3-ethylsulfonylbenzoate], less than 100 nM.

Turning to `CCn1nc(CCCOC(=O)c2ccc(C)cc2C)c2c1C(=O)NCC1(CCOCC1)C2` [Example 14, 3-(1-ethyl-8-oxo-spiro[6,7-dihydro-4H-pyrazolo[3,4-c]azepine-5,4′-tetrahydropyran]-3-yl)propyl 2,4-dimethylbenzoate], the half-inhibitory concentration (IC50) was less than 100 nM. For `CCn1nc(CCCOC(=O)c2cccc(C(=O)N3CCN(C(C)=O)CC3)c2)c2c1C(=O)NCC1(CCOCC1)C2` [Example 120, 3-(1-ethyl-8-oxo-spiro[6,7-dihydro-4H-pyrazolo[3,4-c]azepine-5,4′-tetrahydropyran]-3-yl)propyl 3-(4-acetylpiperazine-1-carbonyl)benzoate], the IC50 is less than 100 nM. On the same count and under the same terms, to `CCn1nc(CC(C)(C)COC(=O)c2ccc(C(=O)N3CCCC3)cc2)c2c1C(=O)NCC1(CCOCC1)C2` [Example 221, [3-(1-ethyl-8-oxo-spiro[6,7-dihydro-4H-pyrazolo[3,4-c]azepine-5,4′-tetrahydro-pyran]-3-yl)-2,2-dimethyl-propyl] 4-(pyrrolidine-1-carbonyl)benzoate] belongs less than 100 nM. The same measure, in the same setting: to `CCn1nc(CC(C)(C)COC(=O)c2cccc(F)c2)c2c1C(=O)NCC1(CCOCC1)C2` [Example 191, [3-(1-ethyl-8-oxo-spiro[6,7-dihydro-4H-pyrazolo[3,4-c]azepine-5,4′-tetrahydropyran]-3-yl)-2,2-dimethyl-propyl] 3-fluorobenzoate] belongs less than 100 nM. On the same count and under the same terms, in the case of `CCn1nc(CC(C)(C)COC(=O)c2ccc(C(=O)NC)cc2)c2c1C(=O)NCC1(CCOCC1)C2` [Example 219, [3-(1-ethyl-8-oxo-spiro[6,7-dihydro-4H-pyrazolo[3,4-c]azepine-5,4′-tetrahydropyran]-3-yl)-2,2-dimethyl-propyl] 4-(methylcarbamoyl)benzoate] it was less than 100 nM. Regarding `CCn1nc(CCCOC(=O)c2c(F)cccc2F)c2c1C(=O)NCC1(CCOCC1)C2` [Example 26, 3-(1-ethyl-8-oxo-spiro[6,7-dihydro-4H-pyrazolo[3,4-c]azepine-5,4′-tetrahydropyran]-3-yl)propyl 2,6-difluorobenzoate], the IC50 is less than 100 nM. Consider `CCn1nc(CC(C)(C)COC(=O)c2cccc(S(=O)(=O)N3CCN(C(C)=O)CC3)c2)c2c1C(=O)NCC1(CCOCC1)C2` [Example 215, [3-(1-ethyl-8-oxo-spiro[6,7-dihydro-4H-pyrazolo[3,4-c]azepine-5,4′-tetrahydropyran]-3-yl)-2,2-dimethyl-propyl] 3-(4-acetylpiperazin-1-yl)sulfonylbenzoate], for which the 50% inhibitory concentration (IC50) was less than 100 nM.

Turning to `CCn1nc(C[C@@H](C)COC(=O)c2ccc(S(=O)(=O)N(C)C)cc2)c2c1C(=O)NCC1(CCOCC1)C2` [Example 161, [(2R)-3-(1-ethyl-8-oxo-spiro[6,7-dihydro-4H-pyrazolo[3,4-c]azepine-5,4′-tetrahydropyran]-3-yl)-2-methyl-propyl] 4-(di-methylsulfamoyl)benzoate], the IC50 is less than 100 nM. Take `CCn1nc(CCCOC(=O)c2cnsc2)c2c1C(=O)NCC1(CCOCC1)C2` [Example 243, 3-(1-ethyl-8-oxo-spiro[6,7-dihydro-4H-pyrazolo[3,4-c]azepine-5,4′-tetrahydropyran]-3-yl)propyl isothiazole-4-carboxylate]: the IC50 is less than 100 nM.

With `CCn1nc(CC(C)(C)COC(=O)c2ccc(S(=O)(=O)CC)cc2)c2c1C(=O)NCC1(CCOCC1)C2` [Example 203, [3-(1-ethyl-8-oxo-spiro[6,7-dihydro-4H-pyrazolo[3,4-c]azepine-5,4′-tetrahydropyran]-3-yl)-2,2-dimethyl-propyl] 4-ethylsulfonylbenzoate], the IC50 is less than 100 nM. On to `CCc1nc(C(=O)OCCCc2nn(CC)c3c2CC2(CCOCC2)CNC3=O)cs1` [Example 260, 3-(1-ethyl-8-oxo-spiro[6,7-dihydro-4H-pyrazolo[3,4-c]azepine-5,4′-tetrahydropyran]-3-yl)propyl 2-ethylthiazole-4-carboxylate], for which the half-maximal inhibitory concentration (IC50) is less than 100 nM. The same measure, in the same setting: in the case of `CCn1nc(CC(C)(C)COC(=O)c2ccc(C(=O)N3CCCCC3)cc2)c2c1C(=O)NCC1(CCOCC1)C2` [Example 222, [3-(1-ethyl-8-oxo-spiro[6,7-dihydro-4H-pyrazolo[3,4-c]azepine-5,4′-tetrahydro-pyran]-3-yl)-2,2-dimethyl-propyl] 4-(piperidine-1-carbonyl)benzoate] it was less than 100 nM. For `CCn1nc(CCCOC(=O)c2cc(OC)ccc2F)c2c1C(=O)NCC1(CCOCC1)C2` [Example 37, 3-(1-ethyl-8-oxo-spiro[6,7-dihydro-4H-pyrazolo[3,4-c]azepine-5,4′-tetrahydropyran]-3-yl)propyl 2-fluoro-5-methoxy-benzoate], the IC50 is less than 100 nM. In the case of `CCn1nc(CCCCOC(=O)c2cnc(C)nc2)c2c1C(=O)NCC1(CCOCC1)C2` [Example 271, 4-(1-ethyl-8-oxo-spiro[6,7-dihydro-4H-pyrazolo[3,4-c]azepine-5,4′-tetrahydropyran]-3-yl)butyl 2-methylpyrimidine-5-carboxylate], the half-maximal inhibitory concentration (IC50) was less than 100 nM. For `CCn1nc(C[C@@H](C)COC(=O)c2ccc(C(=O)N3CCN(C)CC3)cc2)c2c1C(=O)NCC1(CCOCC1)C2` [Example 175, [(2R)-3-(1-ethyl-8-oxo-spiro[6,7-dihydro-4H-pyrazolo[3,4-c]azepine-5,4′-tetrahydropyran]-3-yl)-2-methyl-propyl] 4-(4-methylpiperazine-1-carbonyl)benzoate], the IC50 is less than 100 nM. Regarding `CCn1nc(CCCOC(=O)c2cccc(C(=O)N3CCCC3)c2)c2c1C(=O)NCC1(CCOCC1)C2` [Example 116, 3-(1-ethyl-8-oxo-spiro[6,7-dihydro-4H-pyrazolo[3,4-c]azepine-5,4′-tetrahydropyran]-3-yl)propyl 3-(pyrrolidine-1-carbonyl)benzoate], the half-inhibitory concentration (IC50) was less than 100 nM.

For `CCn1nc(C[C@@H](C)COC(=O)c2cccc(C(=O)N3CCN(C(C)=O)CC3)c2)c2c1C(=O)NCC1(CCOCC1)C2` [Example 185, [(2R)-3-(1-ethyl-8-oxo-spiro[6,7-dihydro-4H-pyrazolo[3,4-c]azepine-5,4′-tetrahydropyran]-3-yl)-2-methyl-propyl] 3-(4-acetylpiperazine-1-carbonyl)benzoate], the half-inhibitory concentration (IC50) is less than 100 nM. The same measure, in the same setting: in the case of `CCn1nc(CCCOC(=O)c2cc(F)cc(C(F)(F)F)c2)c2c1C(=O)NCC1(CCOCC1)C2` [Example 72, 3-(1-ethyl-8-oxo-spiro[6,7-dihydro-4H-pyrazolo[3,4-c]azepine-5,4′-tetrahydro-pyran]-3-yl)propyl 3-fluoro-5-(trifluoromethyl)benzoate] it was less than 100 nM.
